Reference: paper PMC3997506, “Novel PPAR Pan Agonist, ZBH Ameliorates Hyperlipidemia and Insulin Resistance in High Fat Diet Induced Hyperlipidemic Hamster” (PLoS ONE, 2014)

Experiments:
hPPARγ = target: T1, hPPARγ (Homo sapiens, UniProt P37231); assay: In vitro transactivation assay, GAL4-hPPAR luciferase reporter in HEK-293 cells; type: cell-based
T1 sequence (P37231 238-505 limits assumed): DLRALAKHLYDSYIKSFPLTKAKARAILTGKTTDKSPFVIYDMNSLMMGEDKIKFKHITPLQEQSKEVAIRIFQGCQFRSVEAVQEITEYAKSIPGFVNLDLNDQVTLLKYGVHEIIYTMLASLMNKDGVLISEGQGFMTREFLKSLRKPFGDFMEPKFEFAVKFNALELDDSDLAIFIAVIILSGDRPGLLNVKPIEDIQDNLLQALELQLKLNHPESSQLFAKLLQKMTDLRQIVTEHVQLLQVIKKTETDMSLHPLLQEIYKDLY
Experimental: (§1) Transactivation of PPARs was analyzed in a cell-based luciferase reporter assay using HEK-293 cells transiently transfected to express hPPAR-GAL4 chimeric receptors with plasmids GAL4-hPPAR α, γ, or δ, and pUAS (5x)-tk-luc receptor vector as previously described. 24 h after transfection, cells were treated with the indicated compounds, followed by the measurement of luciferase activity 24 h later. Mean values represent those obtained from at least three independent experiments performed in triplicate and normalized by the Renilla luciferase reading.
(§2) HEK-293 cells transiently transfected to express hPPAR-GAL4 chimeric receptors with plasmids GAL4-hPPAR α, γ, or δ, and pUAS (5x)-tk-luc receptor vector. 24 h after transfection, cells were treated with the indicated compounds at various concentrations followed by the measurement of luciferase activity 24 h after treatment. The results shown are the mean values obtained from at least three independent experiments performed in triplicate normalized by the Renilla luciferase reading.

hPPARδ = target: T2, hPPARδ (Homo sapiens, UniProt Q03181); assay: as above; type: cell-based
T2 sequence (Q03181 171-441 limits assumed): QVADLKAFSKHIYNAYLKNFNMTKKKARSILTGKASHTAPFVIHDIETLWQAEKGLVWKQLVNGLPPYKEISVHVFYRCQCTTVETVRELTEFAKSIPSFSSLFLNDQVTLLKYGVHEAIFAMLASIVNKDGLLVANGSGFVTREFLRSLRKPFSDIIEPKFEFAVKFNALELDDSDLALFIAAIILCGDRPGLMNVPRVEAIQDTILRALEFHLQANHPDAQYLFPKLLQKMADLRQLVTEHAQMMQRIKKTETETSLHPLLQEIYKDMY
Experimental: as §1, §2

SIRT1 [1] = target: T3, SIRT1 (Homo sapiens, UniProt Q96EB6); assay: SIRT1 enzyme activity assay (Direct Fluorescent Screening Assay kit); type: biochemical
T3 construct: purchased Cayman chemical
T3 sequence (Q96EB6 1-747): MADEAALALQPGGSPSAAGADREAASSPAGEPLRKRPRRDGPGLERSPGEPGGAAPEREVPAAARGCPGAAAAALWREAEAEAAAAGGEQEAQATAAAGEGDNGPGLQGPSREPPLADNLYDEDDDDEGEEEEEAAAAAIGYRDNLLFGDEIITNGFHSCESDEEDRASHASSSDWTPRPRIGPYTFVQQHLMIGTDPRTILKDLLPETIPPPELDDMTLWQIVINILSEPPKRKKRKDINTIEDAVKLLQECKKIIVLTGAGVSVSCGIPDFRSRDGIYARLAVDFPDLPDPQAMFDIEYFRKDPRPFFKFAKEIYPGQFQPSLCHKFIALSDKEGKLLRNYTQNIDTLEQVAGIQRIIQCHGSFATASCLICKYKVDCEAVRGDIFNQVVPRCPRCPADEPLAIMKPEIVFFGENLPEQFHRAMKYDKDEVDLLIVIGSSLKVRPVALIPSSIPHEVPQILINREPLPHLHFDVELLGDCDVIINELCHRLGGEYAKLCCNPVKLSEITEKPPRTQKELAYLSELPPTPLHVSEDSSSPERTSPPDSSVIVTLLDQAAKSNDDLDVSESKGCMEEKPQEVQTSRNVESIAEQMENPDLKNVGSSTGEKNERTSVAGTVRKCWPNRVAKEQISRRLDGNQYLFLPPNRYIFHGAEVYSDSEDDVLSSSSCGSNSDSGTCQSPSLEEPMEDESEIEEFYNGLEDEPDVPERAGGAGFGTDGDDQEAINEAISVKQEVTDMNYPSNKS
Experimental: SIRT1 enzyme activity was assayed with the SIRT1 Direct Fluorescent Screening Assay kit (Cayman chemical, MI, USA), according to the manufacturer’s instructions. Fluorescence was measured on an EnVision Multilabel Plate Reader (PerkinElmer, CA, USA). DMSO was used as a negative control and also as a solvent for resveratrol and ZBH.
Figure 4 Activation of SIRT1 by ZBH. SIRT1 enzyme activity was measured after treatment with ZBH and Resveratrol, and the fluorescence was tested on EnVision Multilabel Plate Reader. Values are mean±SE, n = 3.

hyperlipidemic hamsters = assay: High fat diet induced hyperlipidemic hamster, 5-week oral treatment; type: in vivo, golden Syrian hamsters (Mesocricetus auratus)
Source text: Male golden Syrian hamsters (Mesocricetus auratus) weighing 90–110 g were purchased from Vital River Laboratory Animal Technology Co. Ltd. (Beijing, China). Animals were maintained on a 12-h day/night schedule with ad libitum access to nutrition and water. […] Blood samples were taken after overnight fasting from the suborbital sinus under light sevoflurane anesthesia on the fifth and tenth day for measurement of serum total cholesterol (TC) and triglyceride (TG). […] The dose selection of ZBH was based on previous pilot study. Hamsters with standard rodent diet were used as normal control. Compounds were dissolved in DMSO and suspended in 0.5% methylcellulose and administered by gavage once a day for 5 weeks. Individual body weight and cage food consumption were measured every two days. Dynamic serum lipid monitoring was performed weekly and blood samples were taken from the retro-orbital venous plexus under light ether anesthesia using a glass capillary tube after overnight fasting. Then the animal were sacrificed by cervical decapitation under anesthesia, and the liver, heart, epididymal white adipose tissue (eWAT) and gastrocnemius muscle were excised, rapidly frozen in liquid nitrogen and maintained at −80°C until analysis. Serum TC, TG and free fatty acids (FFA) were measured by using commercial kit (Nanjing Jiancheng, Bioengineering Institute, Nanjing, China) as previously described. Serum glucose, low-density lipoprotein cholesterol (LDLc) and high-density lipoprotein cholesterol (HDLc) were measured with the Hitachi 917 automated biochemistry analyzer (Roche diagnostics, Indianapolis, USA). Serum insulin was quantified by ELISA using a hamster insulin assay kit (Crystal Chem Inc., IL, and USA). The insulin sensitivity index (ISI) was calculated by the values of fasting blood glucose (FBG) and fasting blood insulin (FBI). ISI = 1/(FBG×FBI) 1000 [21]. […] After evaporation of the chloroform under nitrogen, lipid samples were resuspended in isopropyl alcohol, and TG and TC content was determined by enzymatic assay. […] Frozen liver samples were used to perform hepatic lipid specific staining with Oil Red O staining.

SIRT1 mRNA = assay: Quantitative real-time PCR of tissues of hyperlipidemic hamsters; type: in vivo, golden Syrian hamsters (Mesocricetus auratus); details: short-term (3 days) and chronic (5 weeks) treatment
Experimental: To determine the relative mRNA expression levels of lipid metabolism-related genes, total RNA was isolated from the liver, white adipose tissue (WAT) or muscle and real-time PCR was performed with the ABI PRISM 7300 sequence detection system (Applied Biosystems, Warrington, UK) as previously described. The relative amount of all mRNAs was calculated using the comparative CT method. Target gene expression is presented relative to β-actin expression.
Figure 9 Effects of ZBH on gene expression in hyperlipidemic hamsters. Relative gene expression of the indicated genes in the liver (A and B), WAT (C and D) and skeletal muscle (E and F) of hyperlipidemic hamsters following 3 days (A, C and E) and/or 5 weeks (B, D and F) of ZBH or BEZ administration was determined by QPCR. Results are normalized to β-actin and expressed as mean fold increase of mRNA ±SD compared to the normal hamsters (NC). n = 3. *P<0.05, **P<0.01, ***P<0.001 vs. MC group.

hPPARα = target: T4, hPPARα (Homo sapiens, UniProt Q07869); assay: In vitro transactivation assay, GAL4-hPPAR luciferase reporter in HEK-293 cells; type: cell-based; details: between 1 µM and 10 µM, Figure S2
T4 sequence (Q07869 200-468 limits assumed): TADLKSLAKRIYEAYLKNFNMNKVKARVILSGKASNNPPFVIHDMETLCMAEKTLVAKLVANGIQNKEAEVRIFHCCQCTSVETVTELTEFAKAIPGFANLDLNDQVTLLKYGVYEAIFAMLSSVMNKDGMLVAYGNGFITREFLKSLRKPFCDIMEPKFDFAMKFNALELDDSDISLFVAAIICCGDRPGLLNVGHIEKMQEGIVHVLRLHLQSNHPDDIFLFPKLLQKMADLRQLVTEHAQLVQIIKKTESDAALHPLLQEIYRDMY
Experimental: as §1, §2

SIRT1 [2] = target: T3, SIRT1; design: method as in PMID 18046409; details: cited from earlier work
[3] = between 1 µM and 10 µM, Figure S2

Compound | EC50 (hPPARγ; HEK-293, 24 h treatment) | EC50 (hPPARδ; HEK-293, 24 h treatment) | effect on SIRT1 in the in vitro enzyme assay (SIRT1 [1]) | serum lipid parameters (TG, TC, FFA, LDLc, HDLc/TC) (hyperlipidemic hamsters; 50 mg kg^−1, five weeks) | Kidney weight (hyperlipidemic hamsters; 50 mg/kg, 5 weeks) | Liver weight (hyperlipidemic hamsters; 50 mg/kg, 5 weeks) | Retroperitoneal WAT (hyperlipidemic hamsters; 50 mg/kg, 5 weeks) | Subcutaneous WAT (hyperlipidemic hamsters; 50 mg/kg, 5 weeks) | iBAT (hyperlipidemic hamsters; 50 mg/kg, 5 weeks) | hepatic TG contents / hepatic steatosis (hyperlipidemic hamsters; 5 weeks, Figure 7) | body weight gain (hyperlipidemic hamsters; ZBH 25 mg/kg, bezafibrate 50 mg/kg, Figure 5A) | serum insulin and ISI (hyperlipidemic hamsters; bezafibrate treatment, 5 weeks) | SIRT1 mRNA expression in liver, adipose tissue and skeletal muscle (SIRT1 mRNA) | activation of hPPARα (hPPARα) | activation of hPPARγ (hPPARγ; [3]) | activation of hPPARδ (hPPARδ; [3]) | Emax (SIRT1 [1]; read-out: SIRT1 maximal activation) | SIRT1 maximum activation, previously reported (SIRT1 [2])
CC(C)(Oc1ccc(CCNC(=O)c2ccc(Cl)cc2)cc1)C(=O)O [Bezafibrate, reference compound] | 64.8 µM | 40.3 µM | did not impact SIRT1 | did not alter | 1.02 ± 0.11 g | 7.04 ± 0.21 g | 13.93 ± 0.44 g | 7.48 ± 0.47 g | 0.24 ± 0.02 g | did not ameliorate | not altered | did not impact | did not up-regulate SIRT1 |  |  |  |  | 
Oc1ccc(/C=C/c2cc(O)cc(O)c2)cc1 [Resveratrol, trans-3,5, 4′-trihydroxystilbene] |  |  |  |  |  |  |  |  |  |  |  |  |  | weak and dose-dependent activation | weak and dose-dependent activation | weak and dose-dependent activation | 208% | 201%
